Assays:
[1] = tested on: phospho-ERK1/2, phospho-p38, phospho-JNK and phospho-c-jun; experiment: Western blot of demyelination signaling pathways in sciatic nerve after crush or MJ; assay type: in vivo, mouse; details: western blot 4 and 12 hours after crush; treated before crush
Procedure: (§1) TRO19622 drug (Tocris bioscience, Ref. 2906) was diluted in ethanol to 20 mM and then, the solution was diluted in sterile PBS to 20 μM. TRO19622 treatments were realized by 3 mg/kg intraperitoneal (IP) injections of 20 mM solution or by intra sciatic nerve injections of 2 μl of drug solution 2 μM using a Hamilton syringe or a glass needle in sterile conditions 30 minutes before multiphoton image acquisitions or immunohistochemistry and demyelination studies respectively. Methyl jasmonate drug (Sigma-Aldrich, Ref. 392707) was diluted in 1 ml of sterile PBS to 1M or 3M. Methyl jasmonate treatments were realized by intra sciatic nerve injections of 1 μl of drug solution using a glass needle and micromanipulator in sterile conditions following the same virus injections procedure (see in vivo virus injection in the sciatic nerve method) two hours before multiphoton image acquisition. […] All drug concentrations were previously evaluated by Bordet et al, 2007^5; Goldin et al, 2008^6; Sharov et al, 2007^7.

[2] = tested on: CMT1A rats; experiment: Electrophysiology (CMAP, NCV) in CMT1A rats; assay type: in vivo, rat; details: CMT1A rats treated daily for one month
Procedure: Standard electroneurography was performed before, during and after TRO 19622 drug treatment on CMT1A rats and diabetic mice that were anesthetized with 3% isoflurane. A pair of steel needle electrodes (AD Instruments, MLA1302, Oxford, UK) was placed subcutaneously along the nerve at sciatic notch (proximal stimulation). A second pair of electrodes was placed along the tibial nerve above the ankle (distal stimulation). Supramaximal square wave pulses lasting 10 ms and 1 mA for mice and 3.6 mA for rats were delivered using a PowerLab 26T (AD Instruments, Oxford, UK). Compound muscle action potential (CMAP) was recorded from the intrinsic foot muscles using steel electrodes. Both amplitudes and latencies of CMAP were determined. The distance between the two sites of stimulation was measured alongside the skin surface with fully extended legs, and nerve conduction velocities (NCVs) were calculated automatically from sciatic nerve latency measurements (for further details Fledrich et al., 2014^10).

[3] = tested on: mSC mitochondria; experiment: Mitochondrial pH imaging (mito-SypHer) in mSC of mouse sciatic nerve; assay type: in vivo; details: after nerve crush
Procedure: Mice were anesthetized with isoflurane inhalation and placed under a Stemi2000 microscope (Zeiss). Incision area was shaved and cleaned using betadine solution. After incision, the gluteus superficialis and biceps femoris muscles were separated to reveal the cavity traversed by the sciatic nerve. The nerve was lift out using spatula and a thin glass needle filled with viral solution (8 μl) was introduced into the nerve with a micromanipulator. This solution was injected over 30 min with short pressure pulses using a Picospritzer III (Parker Hannifin) coupled to a pulse generator. After injection, the nerve was replaced into the cavity, the muscles were readjusted, and the wound was closed using clips (for further details see Gonzalez et al., 2014^3).
as §1
First injected mouse was anesthetized with 5% of isoflurane a 1.5% of oxygen into the anesthesia system box (World Precision Instruments, Ref. EZ-B800) for 5 minutes. Anesthesia controls were realized^8. Then, mouse was placed in anesthesia mask and the incision area was shaved and cleaned with betadine and ethanol 70% solution. […]

With CC(C)CCC[C@@H](C)[C@H]1CC[C@H]2[C@@H]3CCC4=C/C(=N\O)CC[C@]4(C)[C@H]3CC[C@]12C [TRO19622, (NZ)—N-[(8S,9S,10R,13R,14S,17R)-10,13-dimethyl-17-[(2R)-6-methylheptan-2-yl]-1,2,6,7,8,9,11,12,14,15,16,17-dodecahydrocyclopenta[a]phenanthren-3-ylidene]hydroxylamine] the “increase in phospho-ERK1/2, phospho-p38, phospho-JNK and phospho-c-jun after nerve crush” value [1] was “strongly reduced”, the CMAP amplitude [2] was “significant increase” and the nerve conduction velocity [2] was “significant increase”. For the same molecule, the nerve conduction velocity ([2]; listed as TRO16922) was “largely improved” and the “changes induced by nerve crush in mitochondrial pH not abrogated” value [3] was 12%.

Reference: patent US12053480B2, “Methods and pharmaceutical compositions for treating peripheral demyelinating diseases” (INSERM (INSTITUT NATIONAL DE LA SANTE ET DE LA RECHERCHE …, priority 2015, dated 2024)
